Results taken from patent US20140272000A1, “Liquids and Foodstuffs Containing beta-hydroxy-beta-methylbutyrate (HMB) in the Free Acid Form and Methods of Manufacturing or Producing the Same” (Metabolic Technologies, Inc., priority 2013, published 2014).

Legend:
Assay type in all cases: physicochemical
[1] = Stability of product composition (physical appearance) with the addition of HMB, free acid and calcium salt forms; settings: Ensure Clear, two flavors, 1 g CaHMB or 0.8 g HMB free acid in 40 ml
Experimental: • 1. N=2 (Two flavors of a commercially available ready-to-drink soluble-protein product; Ensure Clear, pH approximately 2.74) • 2. Label the glass bottles A1-A3 and B1-B3. The labels correspond to the following conditions:
• 3. To bottles A2 and B2 1 g of CaHMB MTI 1208-100-02 TSI 12070630 added. • 4. To bottles A3 and B3 0.8 g of HMB Free Acid MTI 1103-100-09 Lot 11010084 added. • 5. 40 ml of Peach flavored product added to the bottles labeled A1-A3. • 6. 40 ml of Blueberry Pomegranate flavored product added to the bottles labeled B1-B3. • 7. Bottles were sealed with rubber caps and crimped shut. Then, they were mixed well and placed on shelf. • 8. Appearances were noted and photos were taken daily (bottles were not disturbed).
Table 2 reports the physical appearance of the ready-to-drink soluble-protein product (n=2) following the addition of CaHMB or HMB free acid and mixing. HMB was not added to the control bottles. Day 1 was recorded after initial mixing.

[2] = Long term stability (appearance) in soluble-protein drinks; settings: 42 days; ISOPURE protein drink, GNC protein juice, Gatorade Recover, Spartos protein water; 250 mg CaHMB or 200 mg HMB FA in 40 ml
Experimental: • 1. Rinse 12 glass bottles with ethanol and let air dry overnight. • 2. Label the glass bottles A1-A3, B1-B3, C1-C3 and D1-D3. The labels correspond to the following conditions:
• 3. To bottles A2-D2 CaHMB MTI 1208-100-02 TSI 12070630 was used. • 4. To bottles A3-D3 HMB Free Acid MTI 1103-100-09 Lot 11010084 was used. • 5. Add 40 ml of ISOPURE protein drink to A1-A3, 40 ml of GNC protein juice to B1-B3, 40 ml Gatorade Recover to C1-C3, and 40 ml Spartos protein water to D1-D3. • 6. Flush with nitrogen and seal the bottles with rubber caps and metal clamp caps. • 7. Mix well. • 8. Take photo of bottles A1-A3, B1-B3, C1-C3, and D1-D3 every Friday. The photos appear in FIG. 2a-2d. The following tables 6-9 provide the nutritional information for each of the liquids tested (ISOPURE, GNC Protein Juice, Gatorade G3-Recover, and Spartos protein water.)

[3] = General observation on addition of HMB forms to liquids
[4] = Stability of HMB-acid at various concentrations in soluble protein (ISOPURE protein drink) over 120 days, HPLC
Experimental: This experiment was designed to observe the stability of HMB-acid at various concentrations in soluble protein over 120 days.
To analyze the stability of HMB free acid in the soluble protein (ISOPURE protein drink, Natures Best®, Hauppauge, N.Y.), different concentrations of HMB free acid were added to the recommended serving size of ISOPURE protein drink. The three concentrations were 300 mg/240 ml, 1000 mg/240 ml, and 3000 mg/240 ml. HMB free acid was measured for each solution using HPLC at 5 different time points: 0, 30, 60, 90, and 120 d. HMB free acid used was MTI 1301-100-03 (Lot 120111036). ISOPURE protein drink used was Lot 1212111132310. ISOPURE protein drink has a pH of approximately 2.54. All glassware and supplies used were autoclaved in preparation of the three different concentrations of HMB free acid in ISOPURE protein drink for the 5 different time points. Materials to be autoclaved were as follows: glass bottles, rubber and metal seals, pipette tips, and graduated cylinder. Autoclave Method #1 for dry goods in Building 3 of ISU Research Park was used.
• For bottles in group A, 60 mg of HMBFA into each of the five bottles was added, and then 48 ml of ISOPURE protein drink was added. The HMBFA concentration was 1.25 mg/ml. • For bottles in group B 200 mg of HMBFA into each of the five bottles was added, and then 48 ml of ISOPURE protein drink was added. The HMBFA concentration was 4.16 mg/ml. • For bottles in group C, 600 mg of HMBFA into each of the five bottles was, and then 48 ml of ISOPURE protein drink was added.
Each sample bottle was flushed with nitrogen and then the top of the bottle was sealed with rubber caps, crimped shut and mix well. • One bottle of each concentration was tested for HMB using SOP 113-04 HMB (modified standard curve), at Time 0, 30, 60, 90, and 120 d.
To prepare the samples for testing, 0.5 ml of the sample was transferred to a microcentrifuge tube in quadruplet. Then 0.25 ml of KIV internal standard added to standards and three of each sample set. Finally, 0.25 ml 0.2M phosphate buffer was added to the three samples with KIV internal standard and 0.5 ml 0.2M phosphate buffer to the samples not containing KIV.
The samples were considered stable with a ±5% of expected change HMB concentration over the four months with an allowable ±3% analytical variation. A linear regression was conducted on the data as a secondary measure of stability.

[5] = Day 1 (after initial mixing), pH approximately 2.74

Row | Compound | Physical appearance [1, 5] | Physical appearance ([1]; Day 7, bottles not disturbed) | Physical appearance ([1]; Day 14, bottles not disturbed) | Physical appearance ([1]; Day 21, bottles not disturbed) | Appearance of the liquids [2] | Changes in the physical appearance on addition ([3]; commercially available soluble-protein containing ready-to-drink products) | Going into solution when added to a liquid ([3]; added to a liquid, slight shaking) | Decrease in HMB free acid, of the expected amount ([4]; 300 mg/serving of soluble protein, 120 days (FIG. 3)) | Linear decrease over time (linear regression) ([4]; 300 mg/serving, 120 days, p<0.05) | Decrease in HMB free acid, of the expected amount ([4]; 1000 mg/serving of soluble protein, 120 days (FIG. 4)) | Linear decrease over time (linear regression) ([4]; 1000 mg/serving, 120 days, p<0.05) | Decrease in HMB free acid, of the expected amount ([4]; 3000 mg/serving of soluble protein, 120 days (FIG. 5)) | Linear decrease over time (linear regression) ([4]; 3000 mg/serving, 120 days, p<0.05) | Stability in a drink containing soluble protein ([4]; room temperature, 120 days) | Changes in HMB concentration over time ([4]; three concentrations (300, 1000, 3000 mg/serving) in ISOPURE, 120 d) | Linear decrease over time (linear regression) ([4]; three concentrations in ISOPURE, 120 d, p>0.05)
1 | CC(C)(O)CC(=O)[O-].CC(C)(O)CC(=O)[O-].[Ca+2] [CaHMB, reference compound] | Cloudy | Defined Separation | Defined Separation w/Particulates | Defined Separation w/Particulates | cloudy and contain precipitate | sedimentation and clumping |  |  |  |  |  |  |  |  |  | 
2 | CC(C)(O)CC(=O)O [HMB free acid, β-Hydroxy-β-methylbutyrate] | Semi-Clear | Semi-Clear | Semi-Clear | Semi-Clear | clear and precipitate-free |  | goes into solution almost instantly | less than 8% | no significant linear decrease | less than 8% | no significant linear decrease | less than 8% | no significant linear decrease | remaining stable | less than 8.0% | no significant linear decrease
